# Source: patent US11987588B2, “Modulators of the beta-3 adrenergic receptor useful for the treatment or prevention of heart failure and disorders related thereto” (Arena Pharmaceuticals, Inc., priority 2017, dated 2024)
# pIC50: −log10 of the molar value.
# Molecular target: Beta-3 Adrenergic Receptor (Homo sapiens (Human), UniProt P13945)
# Test: Homogeneous Time-Resolved Fluorescence (HTRF) cAMP antagonist assay, IC50 determination
# Type: cell-based
# Details: CHO-K1 cells stably expressing recombinant receptor, isoproterenol at EC90
# Method in brief: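 Antagonist mode: isoproterenol at its predetermined EC90 added after compound to recombinant CHO-K1 cells in IBMX-containing PBS, 1 h, room temperature. Compounds tested as 5-fold, 10-point dilutions, top final typically 10 or 100 μM. HTRF signal converted to cAMP via standard curve, giving IC50.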
# Chain of Beta-3 Adrenergic Receptor (P13945 whole entry, species assumed): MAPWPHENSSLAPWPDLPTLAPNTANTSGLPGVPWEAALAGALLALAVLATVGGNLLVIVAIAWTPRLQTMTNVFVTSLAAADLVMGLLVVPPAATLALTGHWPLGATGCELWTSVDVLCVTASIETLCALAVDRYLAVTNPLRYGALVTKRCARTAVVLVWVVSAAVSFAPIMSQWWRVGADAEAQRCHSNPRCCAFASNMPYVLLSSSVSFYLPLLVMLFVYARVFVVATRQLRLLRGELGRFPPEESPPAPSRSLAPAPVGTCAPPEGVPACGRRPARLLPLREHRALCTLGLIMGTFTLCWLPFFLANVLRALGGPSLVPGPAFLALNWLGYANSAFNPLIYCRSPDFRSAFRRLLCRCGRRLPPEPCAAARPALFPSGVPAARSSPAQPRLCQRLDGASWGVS
row,Structure (SMILES),pIC50
1,"CNS(=O)(=O)c1cccc(OC[C@@H](O)CNC2COC3(CCN(S(=O)(=O)c4cccc(Cl)c4C)CC3)C2)c1 (stereo partly drawn) [Compound 143, 3-((2S)-3-(8-(3-chloro-2-methylphenylsulfonyl)-1-oxa-8-azaspiro[4.5]decan-3-ylamino)-2-hydroxypropoxy)-N-methylbenzenesulfonamide]",7.77
2,"CNS(=O)(=O)c1cccc(OC[C@@H](O)CNC2COC3(CCN(S(=O)(=O)c4cccc(-c5ccc(C(=N)N)cc5)c4)CC3)C2)c1 (stereo partly drawn) [Compound 383, 3′-(3-((S)-2-hydroxy-3-(3-(N-methylsulfamoyl)phenoxy)propylamino)-1-oxa-8-azaspiro[4.5]decan-8-ylsulfonyl)biphenyl-4-carboximidamide]",7.66
3,"CNS(=O)(=O)c1cccc(OC[C@@H](O)CNC2COC3(CCN(S(=O)(=O)c4cccc(-c5ccc(CNCCN(C)C)cc5)c4)CC3)C2)c1 (stereo partly drawn) [Compound 305, 3-((2S)-3-(8-(4′-((2-(dimethylamino)ethylamino)methyl)biphenyl-3-ylsulfonyl)-1-oxa-8-azaspiro[4.5]decan-3-ylamino)-2-hydroxypropoxy)-N-methylbenzenesulfonamide]",7.20
4,"O=S(=O)(NCC1CC1)c1cccc(OC[C@@H](O)CNC2COC3(CCN(S(=O)(=O)c4ccc5ccccc5c4)CC3)C2)c1 (stereo partly drawn) [Compound 8, N-(cyclopropylmethyl)-3-((2S)-2-hydroxy-3-(8-(naphthalen-2-ylsulfonyl)-1-oxa-8-azaspiro[4.5]decan-3-ylamino)propoxy)benzenesulfonamide]",7.41
5,"CNS(=O)(=O)c1cccc(OC[C@@H](O)CN[C@H]2COC3(CCN(S(=O)(=O)c4cccc(-c5ccc(S(N)(=O)=O)cc5)c4)CC3)C2)c1 [Compound 292, 3′-((R)-3-((S)-2-hydroxy-3-(3-(N-methylsulfamoyl)phenoxy)propylamino)-1-oxa-8-azaspiro[4.5]decan-8-ylsulfonyl)biphenyl-4-sulfonamide]",7.52
6,"CN(C)CCNS(=O)(=O)c1cccc(OC[C@@H](O)CNC2COC3(CCN(S(=O)(=O)c4ccc5ccccc5c4)CC3)C2)c1 (stereo partly drawn) [Compound 167, N-(2-(dimethylamino)ethyl)-3-((2S)-2-hydroxy-3-(8-(naphthalen-2-ylsulfonyl)-1-oxa-8-azaspiro[4.5]decan-3-ylamino)propoxy)benzenesulfonamide]",5.67
7,"COc1ccc(S(=O)(=O)N2CCC3(CC2)CC(NC[C@H](O)COc2cccc(S(=O)(=O)N(C)C)c2)CO3)cc1C (stereo partly drawn) [Compound 247, 3-((2S)-2-hydroxy-3-(8-(4-methoxy-3-methylphenylsulfonyl)-1-oxa-8-azaspiro[4.5]decan-3-ylamino)propoxy)-N,N-dimethylbenzenesulfonamide]",7.57
8,"Cn1cc(S(=O)(=O)N2CCC3(CC2)C[C@@H](NC[C@H](O)COc2cccc(S(N)(=O)=O)c2)CO3)c(=O)c2ccccc21 [Compound 549, 3-((S)-2-hydroxy-3-((R)-8-(1-methyl-4-oxo-1,4-dihydroquinolin-3-ylsulfonyl)-1-oxa-8-azaspiro[4.5]decan-3-ylamino)propoxy)benzenesulfonamide]",6.85
9,"CNS(=O)(=O)c1cccc(OC[C@@H](O)CNC2COC3(CCN(S(=O)(=O)c4ccc(Cl)s4)CC3)C2)c1 (stereo partly drawn) [Compound 181, 3-((2S)-3-(8-(5-chlorothiophen-2-ylsulfonyl)-1-oxa-8-azaspiro[4.5]decan-3-ylamino)-2-hydroxypropoxy)-N-methylbenzenesulfonamide]",7.61
10,"CNS(=O)(=O)c1cccc(OC[C@@H](O)CN[C@H]2COC3(CCN(S(=O)(=O)c4cnc5c(c4)N(C)CC(C)(C)O5)CC3)C2)c1 [Compound 473, 3-((S)-2-hydroxy-3-((R)-8-(1,3,3-trimethyl-2,3-dihydro-1H-pyrido[2,3-b][1,4]oxazin-7-ylsulfonyl)-1-oxa-8-azaspiro[4.5]decan-3-ylamino)propoxy)-N-methylbenzenesulfonamide]",7.23
11,"CNS(=O)(=O)c1cccc(OC[C@@H](O)CNC2COC3(CCN(S(=O)(=O)c4ccc5c(c4)CCO5)CC3)C2)c1 (stereo partly drawn) [Compound 330, 3-((2S)-3-(8-(2,3-dihydrobenzofuran-5-ylsulfonyl)-1-oxa-8-azaspiro[4.5]decan-3-ylamino)-2-hydroxypropoxy)-N-methylbenzenesulfonamide]",7.44
12,"CCOc1ccc(S(=O)(=O)N2CCC3(CC2)CC(NC[C@H](O)COc2cccc(S(=O)(=O)NC)c2)CO3)cn1 (stereo partly drawn) [Compound 445, 3-((2S)-3-(8-(6-ethoxypyridin-3-ylsulfonyl)-1-oxa-8-azaspiro[4.5]decan-3-ylamino)-2-hydroxypropoxy)-N-methylbenzenesulfonamide]",7.52
13,"CNS(=O)(=O)c1cccc(OC[C@@H](O)CNC2COC3(CCN(S(=O)(=O)c4ccc(NCCN)nc4)CC3)C2)c1 (stereo partly drawn) [Compound 429, 3-((2S)-3-(8-(6-(2-aminoethylamino)pyridin-3-ylsulfonyl)-1-oxa-8-azaspiro[4.5]decan-3-ylamino)-2-hydroxypropoxy)-N-methylbenzenesulfonamide]",6.83
14,"CNS(=O)(=O)c1cccc(OC[C@@H](O)CNC2COC3(CCN(S(=O)(=O)c4cccc(-c5cnn(C)c5)c4)CC3)C2)c1 (stereo partly drawn) [Compound 61, 3-((2S)-2-hydroxy-3-(8-(3-(1-methyl-1H-pyrazol-4-yl)phenylsulfonyl)-1-oxa-8-azaspiro[4.5]decan-3-ylamino)propoxy)-N-methylbenzenesulfonamide]",7.87
15,"CNS(=O)(=O)c1cccc(OC[C@@H](O)CNC2COC3(CCN(S(=O)(=O)c4cccnc4)CC3)C2)c1 (stereo partly drawn) [Compound 324, 3-((2S)-2-hydroxy-3-(8-(pyridin-3-ylsulfonyl)-1-oxa-8-azaspiro[4.5]decan-3-ylamino)propoxy)-N-methylbenzenesulfonamide]",7.11
16,"CNS(=O)(=O)c1cccc(OC[C@@H](O)CNC2COC3(CCN(S(=O)(=O)c4cccc(-c5ccc(NS(C)(=O)=O)cc5)c4)CC3)C2)c1 (stereo partly drawn) [Compound 86, 3-((2S)-2-hydroxy-3-(8-(4′-(methylsulfonamido)biphenyl-3-ylsulfonyl)-1-oxa-8-azaspiro[4.5]decan-3-ylamino)propoxy)-N-methylbenzenesulfonamide]",8.03
17,"CNS(=O)(=O)c1cccc(OC[C@@H](O)CNC2COC3(CCN(S(=O)(=O)c4sc(-c5ccccc5)nc4C)CC3)C2)c1 (stereo partly drawn) [Compound 186, 3-((2S)-2-hydroxy-3-(8-(4-methyl-2-phenylthiazol-5-ylsulfonyl)-1-oxa-8-azaspiro[4.5]decan-3-ylamino)propoxy)-N-methylbenzenesulfonamide]",7.80
18,"CNS(=O)(=O)c1cccc(OC[C@@H](O)CNC2COC3(CCN(S(=O)(=O)c4c(C)ccc5nonc45)CC3)C2)c1 (stereo partly drawn) [Compound 175, 3-((2S)-2-hydroxy-3-(8-(5-methylbenzo[c][1,2,5]oxadiazol-4-ylsulfonyl)-1-oxa-8-azaspiro[4.5]decan-3-ylamino)propoxy)-N-methylbenzenesulfonamide]",7.62
19,"CNS(=O)(=O)c1cccc(OC[C@@H](O)CN[C@H]2COC3(CCN(S(=O)(=O)c4cnc5c(c4)N(CCO)CCO5)CC3)C2)c1 [Compound 465, 3-((S)-2-hydroxy-3-((R)-8-(1-(2-hydroxyethyl)-2,3-dihydro-1H-pyrido[2,3-b][1,4]oxazin-7-ylsulfonyl)-1-oxa-8-azaspiro[4.5]decan-3-ylamino)propoxy)-N-methylbenzenesulfonamide]",7.58
20,"CCn1ncc(S(=O)(=O)N2CCC3(CC2)CC(NC[C@H](O)COc2cccc(S(=O)(=O)NC)c2)CO3)c1C (stereo partly drawn) [Compound 329, 3-((2S)-3-(8-(1-ethyl-5-methyl-1H-pyrazol-4-ylsulfonyl)-1-oxa-8-azaspiro[4.5]decan-3-ylamino)-2-hydroxypropoxy)-N-methylbenzenesulfonamide]",6.81
21,"CN1CCOc2ncc(S(=O)(=O)N3CCC4(CC3)C[C@@H](NC[C@H](O)COc3cccc(S(=O)(=O)NC5CCCC5O)c3)CO4)cc21 (stereo in doubt) [Compound 437, 3-((S)-2-hydroxy-3-((R)-8-(1-methyl-2,3-dihydro-1H-pyrido[2,3-b][1,4]oxazin-7-ylsulfonyl)-1-oxa-8-azaspiro[4.5]decan-3-ylamino)propoxy)-N-((1R,2S)-2-hydroxycyclopentyl)benzenesulfonamide]",6.33
22,"C[C@H](CO)NS(=O)(=O)c1cccc(OC[C@@H](O)CN[C@H]2COC3(CCN(S(=O)(=O)c4cnc5c(c4)N(C)CCO5)CC3)C2)c1 [Compound 418, 3-((S)-2-hydroxy-3-((R)-8-(1-methyl-2,3-dihydro-1H-pyrido[2,3-b][1,4]oxazin-7-ylsulfonyl)-1-oxa-8-azaspiro[4.5]decan-3-ylamino)propoxy)-N—((R)-1-hydroxypropan-2-yl)benzenesulfonamide]",6.76
23,"CNS(=O)(=O)c1cccc(OC[C@@H](O)CN[C@H]2COC3(CCN(S(=O)(=O)c4cnc5[nH]cnc5c4C)CC3)C2)c1 [Compound 519, 3-((S)-2-hydroxy-3-((R)-8-(7-methyl-3H-imidazo[4,5-b]pyridin-6-ylsulfonyl)-1-oxa-8-azaspiro[4.5]decan-3-ylamino)propoxy)-N-methylbenzenesulfonamide]",7.16
24,"CNS(=O)(=O)c1cccc(OC[C@@H](O)CNC2COC3(CCN(S(=O)(=O)c4cccc(-c5ccc(CN)cc5)c4)CC3)C2)c1 (stereo partly drawn) [Compound 79, 3-((2S)-3-(8-(4′-(aminomethyl)biphenyl-3-ylsulfonyl)-1-oxa-8-azaspiro[4.5]decan-3-ylamino)-2-hydroxypropoxy)-N-methylbenzenesulfonamide]",8.15
25,"CCn1cc(-c2cccc(S(=O)(=O)N3CCC4(CC3)CC(NC[C@H](O)COc3cccc(S(=O)(=O)NC)c3)CO4)c2)cn1 (stereo partly drawn) [Compound 69, 3-((2S)-3-(8-(3-(1-ethyl-1H-pyrazol-4-yl)phenylsulfonyl)-1-oxa-8-azaspiro[4.5]decan-3-ylamino)-2-hydroxypropoxy)-N-methylbenzenesulfonamide]",7.68
26,"CNS(=O)(=O)c1cccc(OC[C@@H](O)CNC2COC3(CCN(S(=O)(=O)Cc4ccccc4)CC3)C2)c1 (stereo partly drawn) [Compound 172, 3-((2S)-3-(8-(benzylsulfonyl)-1-oxa-8-azaspiro[4.5]decan-3-ylamino)-2-hydroxypropoxy)-N-methylbenzenesulfonamide]",7.10
